Measurements from ChEMBL document CHEMBL3392975, “Design and nuclear magnetic resonance (NMR) structure determination of the second extracellular immunoglobulin tyrosine kinase A (TrkAIg2) domain construct for binding site elucidation in drug discovery” (J Med Chem, 2015).

Experiments:
[1] = target: T1, High affinity nerve growth factor receptor (Homo sapiens, UniProt P04629); experiment: Binding affinity to T292 residue of human recombinant TrkAIg2-NMR construct expressed in Escherichia coli by 1H-15N HSQC NMR spectroscopy
[2] = target: T1, High affinity nerve growth factor receptor; experiment: Binding affinity to V305 residue of human recombinant TrkAIg2-NMR construct expressed in Escherichia coli by 1H-15N HSQC NMR spectroscopy
[3] = target: T1, High affinity nerve growth factor receptor; experiment: Binding affinity to C345 residue of human recombinant TrkAIg2-NMR construct expressed in Escherichia coli by 1H-15N HSQC NMR spectroscopy
[4] = target: T1, High affinity nerve growth factor receptor; experiment: Binding affinity to F303 residue of human recombinant TrkAIg2-NMR construct expressed in Escherichia coli by 1H-15N HSQC NMR spectroscopy
[5] = target: T1, High affinity nerve growth factor receptor; experiment: Displacement of [125I]NGF from full length human TrkA expressed in HEKN3S cells by gamma counting based radioligand competition assay; assay type: cell-based
[6] = target: T1, High affinity nerve growth factor receptor; experiment: Antagonist activity at full length glycosylated human TrkA expressed in HEKN3S cells assessed as reduction in NGF-induced ERK 42/44 phosphorylation incubated for 5 mins by automated immunofluorescence assay; assay type: cell-based

T1 sequence (P04629 whole entry): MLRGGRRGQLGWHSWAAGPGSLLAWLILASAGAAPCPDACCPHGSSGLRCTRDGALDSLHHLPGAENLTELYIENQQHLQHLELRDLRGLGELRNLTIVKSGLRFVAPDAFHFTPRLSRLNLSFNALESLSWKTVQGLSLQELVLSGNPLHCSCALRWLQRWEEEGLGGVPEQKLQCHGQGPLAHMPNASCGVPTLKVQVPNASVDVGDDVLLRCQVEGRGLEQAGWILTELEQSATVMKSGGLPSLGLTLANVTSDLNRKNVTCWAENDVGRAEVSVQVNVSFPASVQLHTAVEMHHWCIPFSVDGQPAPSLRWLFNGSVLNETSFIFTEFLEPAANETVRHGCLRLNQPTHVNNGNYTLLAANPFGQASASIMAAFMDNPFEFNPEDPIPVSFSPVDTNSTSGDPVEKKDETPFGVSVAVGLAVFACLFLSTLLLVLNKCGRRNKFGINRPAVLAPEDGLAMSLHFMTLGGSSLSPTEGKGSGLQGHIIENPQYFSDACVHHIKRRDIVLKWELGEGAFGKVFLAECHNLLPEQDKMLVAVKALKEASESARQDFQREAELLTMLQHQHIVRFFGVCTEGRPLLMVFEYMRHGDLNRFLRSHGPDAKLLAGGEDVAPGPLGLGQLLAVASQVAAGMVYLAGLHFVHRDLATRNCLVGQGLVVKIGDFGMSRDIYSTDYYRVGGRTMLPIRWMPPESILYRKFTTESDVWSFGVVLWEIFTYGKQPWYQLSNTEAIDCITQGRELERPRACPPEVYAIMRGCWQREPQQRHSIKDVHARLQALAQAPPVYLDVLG

CN(C)CCC=C1c2ccccc2CCc2ccccc21 [AMITRIPTYLINE]
Kd [1]: 1800 µM | Kd [2]: 2100 µM | Kd [3]: 2100 µM | Kd [4]: 2200 µM | IC50 [5]: 60 µM | EC50 [6]: 86 µM
